Consider six compounds from ChEMBL document CHEMBL5316276, “Discovery of the First Lactate Dehydrogenase Proteolysis Targeting Chimera Degrader for the Treatment of Pancreatic Cancer” (J Med Chem, 2023).

Structures are written as SMILES. pIC50: −log10 of the molar value. Active and inactive are the calls of the source. No cut-off for these calls is given here.

Test [1] concerns the target T1, L-lactate dehydrogenase B chain (Homo sapiens, UniProt P07195). As to the kind of experiment: Inhibition of human LDHB.
Test [2] has as its target T2, L-lactate dehydrogenase A chain (Homo sapiens, UniProt P00338). Kind of test: Inhibition of human LDHA.
The target of test [3] is T3, von Hippel-Lindau disease tumor suppressor/L-lactate dehydrogenase A chain (Homo sapiens) (UniProt P00338+P40337). Kind of test: Protac activity at VHL E3 ligase/LDHA in human PANC-1 cells assessed as induction of LDHA degradation at 10 uM incubated for 48 hrs by Western blotting analysis. In kind it is cell-based. Background: A western blot detects proteins with antibodies after separation by electrophoresis.

In test [4] the target is T1, L-lactate dehydrogenase B chain. As to the kind of experiment: Inhibition of recombinant human LDHB.
Test [5] has as its target T2, L-lactate dehydrogenase A chain. As to the kind of experiment: Inhibition of recombinant human LDHA.
The subject of the next test is MIA PaCa-2. As to the kind of experiment: Antiproliferative activity against human MIA PaCa-2 cells assessed as cell growth inhibition incubated for 72 hrs by WST-8 assay. In kind it is functional.
A further test relates to BXPC-3. Kind of test: Antiproliferative activity against human BXPC-3 cells assessed as cell growth inhibition incubated for 72 hrs by WST-8 assay. In kind it is functional, cell-based. In general terms: Tetrazolium dyes change colour on reduction, which living cells bring about.
The target in test [6] is T3, von Hippel-Lindau disease tumor suppressor/L-lactate dehydrogenase A chain (Homo sapiens). As to the kind of experiment: Protac activity at VHL E3 ligase/LDHA in human MIA PaCa-2 cells assessed as induction of LDHA degradation at 0.3 to 3 uM incubated for 24 hrs by Western blotting analysis. The format is cell-based. Conditions: dose 0.3-3 µM.
The subject of the next test is PANC-1. As to the kind of experiment: Antiproliferative activity against human PANC-1 cells assessed as cell growth inhibition incubated for 72 hrs by WST-8 assay. In kind it is functional.
Test [7] addresses T3, von Hippel-Lindau disease tumor suppressor/L-lactate dehydrogenase A chain (Homo sapiens). As to the kind of experiment: Protac activity at VHL/LDHA in human BXPC-3 cells assessed as induction of LDHA degradation at 0.3 to 3 uM incubated for 24 hrs by Western blotting analysis. In kind it is cell-based. Conditions: dose 0.3-3 µM.

A word on the pIC50: it is −log10 of the IC50, conventionally taken in molar units. For `Cc1ccc(C#Cc2cccc(-c3nn(-c4nc(C(=O)O)cs4)c(CC4CC4)c3Cc3ccc(S(N)(=O)=O)c(F)c3)c2)s1`, the negative logarithm of the IC50 (pIC50) in [1] was 8.30; in [2], 8.52.

On to `Cc1ncsc1-c1ccc(CNC(=O)[C@@H]2C[C@@H](O)CN2C(=O)[C@@H](NC(=O)CCCCCC(=O)NCCCCC#Cc2cccc(-c3nn(-c4nc(C(=O)O)cs4)c(CC4CC4)c3Cc3ccc(S(N)(=O)=O)cc3)c2)C(C)(C)C)cc1`, for which, in test [3], the result was Active.

As to `Cc1ncsc1-c1ccc(CNC(=O)[C@@H]2C[C@@H](OCc3ccccc3)CN2C(=O)[C@@H](NC(=O)CCCCCCCCCCCC(=O)NCCCCC#Cc2cccc(-c3nn(-c4nc(C(=O)O)cs4)c(CC4CC4)c3Cc3ccc(S(N)(=O)=O)cc3)c2)C(C)(C)C)cc1`, the pIC50 in test [4] is 7.37; in [5] it was 8.59.

Consider `Cc1ncsc1-c1ccc(CNC(=O)[C@@H]2C[C@@H](O)CN2C(=O)[C@@H](NC(=O)CCCCC(=O)NCCCCC#Cc2cccc(-c3nn(-c4nc(C(=O)O)cs4)c(CC4CC4)c3Cc3ccc(S(N)(=O)=O)cc3)c2)C(C)(C)C)cc1`, for which, in [3], the outcome was Active.

Regarding `Cc1ncsc1-c1ccc(CNC(=O)[C@@H]2C[C@@H](O)CN2C(=O)[C@@H](NC(=O)CCCCCCC(=O)NCCCCC#Cc2cccc(-c3nn(-c4nc(C(=O)O)cs4)c(CC4CC4)c3Cc3ccc(S(N)(=O)=O)cc3)c2)C(C)(C)C)cc1`, the result in test [3] was Active.

The term GI50 denotes the concentration giving 50% growth inhibition. `NS(=O)(=O)c1ccc(Cc2c(-c3cccc(-c4ccccc4)c3)nn(-c3nc(C(=O)O)cs3)c2CC2CC2)cc1`: the GI50 in the test on MIA PaCa-2 and with PANC-1 was greater than 30000 nM each time. The inhibition result with BXPC-3 was “inactive”. In addition, the outcome in [6] and in [7] was inactive.
